The experiment concerns the target T1, IRAK-4 enzyme (Homo sapiens, UniProt Q9NWZ3).
T1 construct: purchased Millipore, USA
T1 sequence (Q9NWZ3 1-460): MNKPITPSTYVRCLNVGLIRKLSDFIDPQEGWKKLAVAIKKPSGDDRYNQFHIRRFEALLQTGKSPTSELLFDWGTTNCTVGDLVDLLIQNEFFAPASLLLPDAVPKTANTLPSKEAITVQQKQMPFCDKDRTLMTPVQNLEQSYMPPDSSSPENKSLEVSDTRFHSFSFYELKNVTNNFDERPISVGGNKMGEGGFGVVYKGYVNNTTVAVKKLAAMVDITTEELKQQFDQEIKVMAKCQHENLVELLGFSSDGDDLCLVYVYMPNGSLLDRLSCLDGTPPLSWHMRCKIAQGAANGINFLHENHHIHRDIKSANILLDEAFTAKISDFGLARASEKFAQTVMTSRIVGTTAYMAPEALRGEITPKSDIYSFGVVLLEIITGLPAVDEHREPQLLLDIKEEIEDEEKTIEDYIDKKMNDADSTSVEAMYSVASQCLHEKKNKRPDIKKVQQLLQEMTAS
Kind of experiment: IRAK-4 Biochemical Assay (TR-FRET). As to conditions: recombinant IRAK-4 kinase, 20 μM ATP; for inhibition at 0.1 µM: 0.1 μM compound; for inhibition at 1 µM: 1 μM compound. Background: In TR-FRET formats the signal depends on donor and acceptor labels being close together.

Where a name gives a salt, the structure may show the parent alone.

By inhibition is commonly meant the percentage by which the read-out fell short of the control.

Consider `COc1ccc(C(=O)Nc2cc3cn(C)nc3cc2N2CCCCC2)nc1-c1ccnc(N)c1` [Example 45, 2′-amino-3-methoxy-N-(2-methyl-6-(piperidin-1-yl)-2H-indazol-5-yl)-[2,4′-bipyridine]-6-carboxamide], for which the inhibition at 0.1 µM was determined as 9% and the inhibition at 1 µM was 27%.
For `Cn1ncc2cc(NC(=O)c3coc(-c4cccnc4N)n3)c(N3CCC(O)CC3)cc21` [Example 1, 2-(2-aminopyridin-3-yl)-N-(6-(4-hydroxypiperidin-1-yl)-1-methyl-1H-indazol-5-yl)oxazole-4-carboxamide hydrochloride], the inhibition at 0.1 µM turned out to be 96% and the inhibition at 1 µM came to 97%.
For `COCCn1cc2cc(NC(=O)c3cccc(N4CCC(O)C4)n3)c(N3CCCCC3)cc2n1` (centres unmarked) [Example 61, 6-(3-hydroxypyrrolidin-1-yl)-N-(2-(2-methoxyethyl)-6-(piperidin-1-yl)-2H-indazol-5-yl)picolinamide] the same measures were 94% and 97%.
With `Cc1nn(C)c2cc3c(cc12)NC(=O)c1coc(n1)-c1ccnc(c1)NCCCOCC1CCN3CC1` [Example 39, (Z)-51,53-dimethyl-51H-8-oxa-4,12-diaza-2(2,4)-oxazola-5(5,6)-indazola-1(4,2)-pyridina-6(1,4)-piperidinacyclododecaphan-3-one], the inhibition at 0.1 µM was found to be 4% and the inhibition at 1 µM stood at 72%.
For `Cc1cc(-c2nc(C(=O)Nc3cc4cn(C)nc4nc3N3CCCCC3)co2)ccn1` [Example 13, N-(2-methyl-6-(piperidin-1-yl)-2H-pyrazolo[3,4-b]pyridin-5-yl)-2-(2-methylpyridin-4-yl)oxazole-4-carboxamide hydrochloride] the same measures were 98% and 99%.
On the same counts, the results for `Cc1c2cc(NC(=O)c3coc(-c4ccnc(N)c4)n3)c(N3CCCCC3)nc2nn1C` [Example 27, 2-(2-aminopyridin-4-yl)-N-(2,3-dimethyl-6-(piperidin-1-yl)-2H-pyrazolo[3,4-b]pyridin-5-yl)oxazole-4-carboxamide] are 97% and 98%.
For `Cn1ncc2cc(NC(=O)c3cccc(N4CCC(O)C4)n3)c(N3CCCCC3)cc21` (centres unmarked) [Example 33, 6-(3-hydroxypyrrolidin-1-yl)-N-(1-methy-6-(piperidin-1-yl)-1H-indazol-5-yl)picolinamide] the same measures were 43% and 81%.
On to `Cc1nn(C)c2cc(N3CCC(CO)CC3)c(NC(=O)c3cnn4cccnc34)cc12` [Example 8, N-(6-(4-(hydroxymethyl)piperidin-1-yl)-1,3-dimethyl-1H-indazol-5-yl)pyrazolo[1,5-a]pyrimidine-3-carboxamide hydrochloride], for which the inhibition at 0.1 µM stood at 43% and the inhibition at 1 µM is 91%.
Consider `Cn1cc2cc(NC(=O)c3cccc(-c4ccc(N)nc4)n3)c(C3CC3)cc2n1` [Example 48, 6′-amino-N-(6-cyclopropyl-2-methyl-2H-indazol-5-yl)-[2,3′-bipyridine]-6-carboxamide], for which the inhibition at 0.1 µM was 96% and the inhibition at 1 µM came to 98%.
Regarding `Cc1nn(C)c2cc(N3CCC(CO)CC3)c(NC(=O)c3coc(-c4cc(F)c(=O)n(C)c4)n3)cc12` [Example 11, 2-(5-fluoro-1-methyl-6-oxo-1,6-dihydropyridin-3-yl)-N-(6-(4-(hydroxymethyl)piperidin-1-yl)-1,3-dimethyl-1H-indazol-5-yl)oxazole-4-carboxamide hydrochloride], the inhibition at 0.1 µM was 26% and the inhibition at 1 µM is 59%.
For the compound `Cn1cc2cc(NC(=O)c3cccc(-c4ccc(N)nc4)n3)c(N3CCOCC3)cc2n1` [Example 49, 6′-amino-N-(2-methyl-6-morpholino-2H-indazol-5-yl)-[2,3′-bipyridine]-6-carboxamide], the inhibition at 0.1 µM came out at 96% and the inhibition at 1 µM was found to be 97%.
As to `Cn1cc2cc(NC(=O)c3cccc(-c4ccnc(N)c4)n3)c(C3CC3)cc2n1` [Example 52, 2′-amino-N-(6-cyclopropyl-2-methyl-2H-indazol-5-yl)-[2,4′-bipyridine]-6-carboxamide], the inhibition at 0.1 µM was found to be 93% and the inhibition at 1 µM worked out at 96%.
For `Cc1ccc(C(=O)Nc2cc3cn(C)nc3cc2N2CCCCC2)nc1N1CCC(O)CC1` [Example 60, 6-(4-hydroxypiperidin-1-yl)-5-methyl-N-(2-methyl-6-(piperidin-1-yl)-2H-indazol-5-yl)picolinamide] the same measures were 73% and 97%.
For `Cn1cc2cc(NC(=O)c3cc(-c4ccc(N)nc4)ccn3)c(N3CCCCC3)cc2n1` [Example 53, 6-amino-N-(2-methyl-6-(piperidin-1-yl)-2H-indazol-5-yl)-[3,4′-bipyridine]-2′-carboxamide hydrochloride] the same measures were 0% and 13%.
On the same counts, the results for `CCOCC1CCN(c2cc3c(cc2NC(=O)c2coc(-c4ccnc(N)c4)n2)c(C)nn3C)CC1` [Example 35, 2-(2-aminopyridin-4-yl)-N-(6-(4-(ethoxymethyl)piperidin-1-yl)-1,3-dimethyl-1H-indazol-5-yl)oxazole-4-carboxamide] are 95% and 96%.
For the compound `Cc1cc2nn(C)cc2cc1NC(=O)c1cccc(N2CCC(O)C2)n1` (centres unmarked) [Example 70, N-(2,6-dimethyl-2H-indazol-5-yl)-6-(3-hydroxypyrrolidin-1-yl)picolinamide], the inhibition at 0.1 µM amounted to 27% and the inhibition at 1 µM was 82%.

Values taken from patent publication US20180201609A1 (AURIGENE DISCOVERY TECHNOLOGIES LIMITED, priority 2015, published 2018).
